Data on 14 compounds can be found in patent US8399465B2, “Compounds with two fused bicyclic heteroaryl moieties as modulators of leukotriene A4 hydrolase” (Janssen Pharmaceutica NV, priority 2009, dated 2013).

Molecules are shown by their SMILES. Counter-ions that a name gives are not always drawn.

In this experiment the target is T1, recombinant human LTA4 hydrolase (rhLTA4H) (Homo sapiens, UniProt P09960).
T1 construct: made in house; host or cells: Spodoptera frugiperda (Sf-9) cells, baculovirus (pFastBac1)
T1 sequence (P09960 1-611): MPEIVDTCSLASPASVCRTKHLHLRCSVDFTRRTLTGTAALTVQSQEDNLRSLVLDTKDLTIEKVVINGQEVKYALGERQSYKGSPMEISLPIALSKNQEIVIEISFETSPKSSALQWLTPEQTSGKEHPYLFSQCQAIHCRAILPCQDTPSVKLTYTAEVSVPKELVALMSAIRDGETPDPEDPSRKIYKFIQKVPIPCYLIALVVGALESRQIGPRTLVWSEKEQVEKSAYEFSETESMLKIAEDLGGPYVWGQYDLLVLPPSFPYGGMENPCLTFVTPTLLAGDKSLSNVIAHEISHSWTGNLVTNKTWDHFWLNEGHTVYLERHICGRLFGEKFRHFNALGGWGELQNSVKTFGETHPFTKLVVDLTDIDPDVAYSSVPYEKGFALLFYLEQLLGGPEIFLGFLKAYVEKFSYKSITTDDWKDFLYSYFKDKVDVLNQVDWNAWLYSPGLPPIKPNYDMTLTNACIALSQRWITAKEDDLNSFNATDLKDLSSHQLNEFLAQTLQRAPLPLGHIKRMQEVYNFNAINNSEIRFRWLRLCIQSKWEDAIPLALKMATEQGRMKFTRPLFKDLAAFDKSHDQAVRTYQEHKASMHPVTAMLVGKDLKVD
Kind of experiment: Recombinant human LTA4 hydrolase assay for LTA4 hydrolase inhibitor activity. The format is biochemical. Particulars: rhLTA4H, LTB4 by immunoassay; single determination or average of two or more; mark after value = form tested: ′ free base, ″ hydrochloride, ^ formate; read-out: IC50. The protocol: Assay 1: Recombinant Human LTA4 Hydrolase Assay for LTA4 Hydrolase Inhibitor Activity
Compounds of the present invention were tested for LTA4 hydrolase inhibitor activity against recombinant human LTA4 hydrolase (rhLTA4H). Vectors were prepared and used to express rhLTA4H essentially as follows: LTA4 hydrolase encoding DNA was amplified by polymerase chain reaction (PCR) using a human placental cDNA library as a template. […] The amplified 1.9 kb DNA fragment encoding LTA4 hydrolase was isolated and cloned into the pFastBac1 vector (Invitrogen). Recombinant baculovirus was generated as described by the manufacturer, and used to infect Spodoptera frugiperda (Sf-9) cells. […] The purified enzyme solution was adjusted to contain 0.29 mg/mL LTA4 hydrolase, 50 mM Tris (pH 8.0), 150 mM NaCl, 5 mM dithiothreitol, 50% glycerol, and EDTA-free Complete protease inhibitor cocktail (Roche).
LTA4 substrate was prepared from the methyl ester of LTA4 (Cayman Chemical) by treatment with 67 equiv of NaOH under nitrogen at rt for 40 min. The LTA4 substrate in its free acid form was kept frozen at −80° C. until needed. Each compound was diluted to different concentrations in assay buffer (from Assay Designs) containing 10% DMSO. A 25-μL aliquot of each compound dilution was incubated for 10 min at rt with an equal volume of assay buffer containing 10 ng of recombinant human LTA4H. The solution was then adjusted to 200 μL with assay buffer. […] Each reaction was carried out at rt for 30 min. The reaction was stopped by diluting 10 μL of the reaction mixture with 200 μL of assay buffer. LTB4 was quantified in the diluted sample by a commercially available enzyme-linked immunoassay (Cayman Chemical Co.), as recommended by the manufacturer. Positive controls, under essentially identical conditions but without addition of an inhibitor compound, and negative controls, containing all assay components except enzyme, were routinely run in each experiment. IC50 values were determined by nonlinear regression of the activity data at different compound concentrations using Graphpad Prism 4.0, one site binding competition.
The values presented here are the result of a single determination or an average of two or more determinations. Compounds that were not tested are indicated as such by a “NT” designation.
The term IC50 denotes the concentration needed to halve the response being measured. Take `NC(=O)NC1CCN(Cc2cc3ccc(Oc4nc5ncccc5s4)cc3o2)C1` (centres unmarked) [Example 127, 1-(1-{[6-([1,3]Thiazolo[4,5-b]pyridin-2-yloxy)-1-benzofuran-2-yl]methyl}pyrrolidin-3-yl)urea formate]: the half-maximal inhibitory concentration (IC50) was found to be 0.062 µM.
As for `CCOC(=O)C1CCN(Cc2coc3cc(Oc4nc5ccccc5s4)ccc23)CC1` [Example 223, 1-[6-(Benzothiazol-2-yloxy)-benzofuran-3-ylmethyl]-piperidine-4-carboxylic acid ethyl ester], the figure is 0.175 µM; as for `c1ccc2sc(Oc3ccc4c(CN5CCCCC5)coc4c3)nc2c1` [Example 405, 2-(3-Piperidin-1-ylmethyl-benzofuran-6-yloxy)-benzothiazole], 0.077 µM; as for `c1cnc(OC2CCN(Cc3cc4cc(Oc5nc6ncccc6s5)ccc4o3)CC2)nc1` [Example 89, 2-{2-[4-(Pyrimidin-2-yloxy)-piperidin-1-ylmethyl]-benzofuran-5-yloxy}-thiazolo[4,5-b]pyridine], 0.149 µM.
The value for `O=C1CCCN1C1CCN(Cc2cc3ccc(Oc4nc5ncccc5s4)cc3o2)CC1` [Example 108, 1-{1-[6-(Thiazolo[4,5-b]pyridin-2-yloxy)-benzofuran-2-ylmethyl]-piperidin-4-yl}-pyrrolidin-2-one formate] was 0.145 µM.
As for `COC(=O)c1ccc(C(=O)NCc2coc3cc(Oc4nc5ncccc5s4)ccc23)cc1` [Example 393, N-[6-(Thiazolo[4,5-b]pyridin-2-yloxy)-benzofuran-3-ylmethyl]-terephthalamic acid methyl ester], the figure is 0.1 µM; as for `CN1CCC(N(C)Cc2coc3cc(Oc4nc5ncccc5s4)ccc23)CC1` [Example 294, Methyl-(1-methyl-piperidin-4-yl)-[6-(thiazolo[4,5-b]pyridin-2-yloxy)-benzofuran-3-ylmethyl]-amine], 0.024 µM; as for `CCN(CC)Cc1cc2cc(Oc3nc4ncccc4s3)ccc2o1` [Example 329, Diethyl-[5-(thiazolo[4,5-b]pyridin-2-yloxy)-benzofuran-2-ylmethyl]-amine formate], 0.054 µM.
Regarding `CC(=O)N[C@H]1C[C@H]2CC[C@@H](C1)N2Cc1cc2ncc(Oc3nc4ncccc4s3)cc2o1` [Example 296, meso-endo-N-{8-[6-(Thiazolo[4,5-b]pyridin-2-yloxy)-furo[3,2-b]pyridin-2-ylmethyl]-8-aza-bicyclo[3.2.1]oct-3-yl}-acetamide formate], the IC50 was found to be 0.85 µM.
As for `CC(=O)NC1CCN(Cc2cc3ncc(Oc4nc5ncccc5s4)cc3o2)CC1` [Example 273, N-{1-[6-(Thiazolo[4,5-b]pyridin-2-yloxy)-furo[3,2-b]pyridin-2-ylmethyl]-piperidin-4-yl}-acetamide formate], the figure is 0.16 µM; as for `CC(=O)N1CCCC2(CCN(Cc3cc4cc(Oc5nc6ncccc6s5)ccc4o3)C2)C1` (centres unmarked) [Example 166, 1-{2-[5-(Thiazolo[4,5-b]pyridin-2-yloxy)-benzofuran-2-ylmethyl]-2,7-diaza-spiro[4.5]dec-7-yl}-ethanone], 0.286 µM.
The value for `c1cnc2nc(Oc3ccc4oc(CN5CC6COCC6C5)cc4c3)sc2c1` (centres unmarked) [Example 113, 2-[2-(Tetrahydro-furo[3,4-c]pyrrol-5-ylmethyl)-benzofuran-5-yloxy]-thiazolo[4,5-b]pyridine] was 0.283 µM.
As for `CCOC(=O)CCN(C)Cc1coc2cc(Oc3nc4ncccc4s3)ccc12` [Example 334, 3-{Methyl-[6-(thiazolo[4,5-b]pyridin-2-yloxy)-benzofuran-3-ylmethyl]-amino}-propionic acid ethyl ester], the figure is 0.02 µM; as for `CC(=O)N1C[C@H]2CC[C@@H](C1)N2Cc1cc2cc(Oc3nc4cccnc4s3)ccc2o1` [Example 123, meso-1-{8-[5-(Thiazolo[5,4-b]pyridin-2-yloxy)-benzofuran-2-ylmethyl]-3,8-diaza-bicyclo[3.2.1]oct-3-yl}-ethanone], 0.089 µM.
